Results taken from PubChem BioAssay AID248 (DTP/NCI, 2004).
Where “and” joins values, the source holds several entries; their conditions need not be identical. Identical values can stand only once. Inconclusive results and toxic doses are left out. Rule as the data show it: active = T/C of 150% or more; inactive = T/C below 125%.

System: L1210 leukemia ip in BDF1 mice, survival T/C
Test: NCI In Vivo Anticancer Drug Screen. Data for tumor model L1210 Leukemia (intraperitoneal) in B6D2F1 (BDF1) mice
Conditions: endpoint: mean survival time, higher = longer survival
Summary of the method: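 In this screen, tumor-bearing mice given compound are compared to those given vehicle, and their survival values are reported as a treated-to-control quotient.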

[1] = dose: 100.0 mg/kg/injection, schedule: Q01DX009 (ip), vehicle: saline
[2] = dose: 100.0 mg/kg/injection, schedule: Q04DX003 (ip), vehicle: saline
[3] = dose: 200.0 mg/kg/injection, schedule: Q04DX003 (ip), vehicle: saline
[4] = dose: 400.0 mg/kg/injection, schedule: Q04DX003 (ip), vehicle: saline
[5] = dose: 100.0 mg/kg/injection, schedule: Q01DX009 (ip), vehicle: saline with Tween-80
[6] = dose: 100.0 mg/kg/injection, schedule: Q04DX003 (ip), vehicle: saline with Tween-80
[7] = dose: 200.0 mg/kg/injection, schedule: Q01DX009 (ip), vehicle: saline with Tween-80
[8] = dose: 200.0 mg/kg/injection, schedule: Q04DX003 (ip), vehicle: saline with Tween-80
[9] = dose: 400.0 mg/kg/injection, schedule: Q01DX009 (ip), vehicle: saline with Tween-80
[10] = dose: 400.0 mg/kg/injection, schedule: Q04DX003 (ip), vehicle: saline with Tween-80
[11] = dose: 50.0 mg/kg/injection, schedule: Q01DX001 (ip), vehicle: carboxymethylcellulose (CMC)
[12] = dose: 100.0 mg/kg/injection, schedule: Q01DX001 (ip), vehicle: carboxymethylcellulose (CMC)
[13] = dose: 200.0 mg/kg/injection, schedule: Q01DX001 (ip), vehicle: carboxymethylcellulose (CMC)
[14] = dose: 400.0 mg/kg/injection, schedule: Q01DX001 (ip), vehicle: carboxymethylcellulose (CMC)
[15] = dose: 100.0 mg/kg/injection, schedule: Q01DX001 (ip), vehicle: saline
[16] = dose: 200.0 mg/kg/injection, schedule: Q01DX001 (ip), vehicle: saline
[17] = dose: 400.0 mg/kg/injection, schedule: Q01DX001 (ip), vehicle: saline
[18] = dose: 100.0 mg/kg/injection, schedule: Q04DX003 (ip), vehicle: Klucel (hydroxypropylcellulose) (HPC)
[19] = dose: 200.0 mg/kg/injection, schedule: Q04DX003 (ip), vehicle: Klucel (hydroxypropylcellulose) (HPC)
[20] = dose: 400.0 mg/kg/injection, schedule: Q04DX003 (ip), vehicle: Klucel (hydroxypropylcellulose) (HPC)
[21] = dose: 200.0 mg/kg/injection, schedule: Q01DX009 (ip), vehicle: saline
[22] = dose: 400.0 mg/kg/injection, schedule: Q01DX009 (ip), vehicle: saline

Measured: T/C

CSc1nc2nc(Cl)c(Cl)nc2[nH]1
inactive: dose: 12.5 mg/kg/injection, schedule: Q01DX009 (ip), vehicle: saline 105 % of control | dose: 25.0 mg/kg/injection, schedule: Q01DX009 (ip), vehicle: saline 102 % of control and 104 % of control | dose: 50.0 mg/kg/injection, schedule: Q01DX009 (ip), vehicle: saline 102 % of control | [1] 98 % of control | [2] 97 % of control | [3] 98 % of control | [4] 108 % of control

O=c1oc(-c2ccccc2)nc2cc(Cl)ccc12
inactive: dose: 25.0 mg/kg/injection, schedule: Q04DX003 (ip), vehicle: saline with Tween-80 104 % of control | dose: 50.0 mg/kg/injection, schedule: Q04DX003 (ip), vehicle: saline with Tween-80 92 % of control | [5] 90 % of control | [6] 96 % of control and 103 % of control and 88 % of control | [7] 87 % of control | [8] 98 % of control | [9] 92 % of control | [10] 90 % of control

C=C1C[C@]23C[C@H](O)[C@]4(O)[C@@]5(C)C[C@H](O)C[C@]46C(C2[C@@H]1[C@@H](OC(=O)/C(C)=C/C)[C@@H](OC(=O)/C(C)=C/C)[C@H]36)N(C)C5 (stereo partly specified)
inactive: [11] 95 % of control | [12] 106 % of control | [13] 106 % of control | [14] 114 % of control

CC(=O)OC1=C(CC(C)C)C(=O)c2ccccc2C1=O
inactive: [15] 104 % of control | [16] 107 % of control | [17] 103 % of control

COCCCNP1(=O)OCC(C)([N+](=O)[O-])CO1 (stereo unspecified)
inactive: [11] 100 % of control | [12] 94 % of control | [13] 94 % of control | [14] 92 % of control

CCC(=O)C(CC)c1cccc(OC)c1 (stereo unspecified)
inactive: [5] 100 % of control | [6] 100 % of control | [7] 94 % of control | [8] 97 % of control | [9] 114 % of control | [10] 97 % of control

Cc1[nH]c(=O)[nH]c(=O)c1CN1CCCCC1
inactive: [6] 100 % of control | [8] 106 % of control | [10] 93 % of control

Fc1cc(N(CCCl)CCCl)ccc1C=NCCCN=Cc1ccc(N(CCCl)CCCl)cc1F
inactive: [12] 95 % of control | [13] 95 % of control | [14] 111 % of control

O=C(c1ccccc1)c1ccc(Oc2ccc(C(=O)c3ccccc3)cc2)cc1
inactive: dose: 75.0 mg/kg/injection, schedule: Q04DX003 (ip), vehicle: Klucel (hydroxypropylcellulose) (HPC) 94 % of control | [18] 101 % of control | dose: 150.0 mg/kg/injection, schedule: Q04DX003 (ip), vehicle: Klucel (hydroxypropylcellulose) (HPC) 96 % of control | [19] 96 % of control | dose: 300.0 mg/kg/injection, schedule: Q04DX003 (ip), vehicle: Klucel (hydroxypropylcellulose) (HPC) 107 % of control | [20] 95 % of control

CN(C)c1ccc2c(c1)C(=O)c1cc(Br)ccc1-2
inactive: [12] 105 % of control | [13] 100 % of control | [14] 108 % of control

O=c1ccn2c(n1)OC1C(O)C(CO)OC12 (stereo unspecified)
inactive: dose: 100.0 mg/kg/injection, schedule: Q01DX005 (ip), vehicle: saline 103 % of control | [1] 97 % of control | dose: 200.0 mg/kg/injection, schedule: Q01DX005 (ip), vehicle: saline 111 % of control | [21] 109 % of control | [22] 101 % of control

CC(=O)OC1C2OC3C=C(C)CCC3(CO)C(C)(C1O)C21CO1 (stereo unspecified)
inactive: dose: 0.8 mg/kg/injection, schedule: Q01DX009 (ip), vehicle: other 101 % of control | dose: 1.6 mg/kg/injection, schedule: Q01DX009 (ip), vehicle: other 104 % of control | dose: 3.2 mg/kg/injection, schedule: Q01DX009 (ip), vehicle: other 101 % of control | dose: 6.4 mg/kg/injection, schedule: Q01DX009 (ip), vehicle: other 114 % of control | dose: 12.8 mg/kg/injection, schedule: Q01DX009 (ip), vehicle: other 122 % of control | dose: 25.6 mg/kg/injection, schedule: Q01DX009 (ip), vehicle: other 122 % of control

CC(=O)CC(=O)NCCNCCNC(=O)CC(C)=O
inactive: [1] 88 % of control | [2] 91 % of control | [21] 95 % of control | [3] 98 % of control | [22] 97 % of control | [4] 100 % of control

O=S(OCc1ccccc1)OCc1ccccc1
inactive: [1] 98 % of control | [21] 104 % of control | [22] 91 % of control

O=C(O)c1c(O)c2cc(Cl)ccc2oc1=O
inactive: [15] 98 % of control | [17] 98 % of control

N#CCc1ccc2[nH]c3c(c2c1)CCCC3
inactive: dose: 100.0 mg/kg/injection, schedule: Q04DX002 (ip), vehicle: Klucel (hydroxypropylcellulose) (HPC) 106 % of control | dose: 200.0 mg/kg/injection, schedule: Q04DX002 (ip), vehicle: Klucel (hydroxypropylcellulose) (HPC) 92 % of control | dose: 400.0 mg/kg/injection, schedule: Q04DX002 (ip), vehicle: Klucel (hydroxypropylcellulose) (HPC) 92 % of control

CCCCCCCCCCCC(=O)CCCCC
inactive: dose: 100.0 mg/kg/injection, schedule: Q01DX009 (ip), vehicle: other 91 % of control | dose: 200.0 mg/kg/injection, schedule: Q01DX009 (ip), vehicle: other 94 % of control | dose: 400.0 mg/kg/injection, schedule: Q01DX009 (ip), vehicle: other 91 % of control

NC(N)=N/N=C/c1ccccc1S(=O)(=O)O
inactive: dose: 15.0 mg/kg/injection, schedule: Q01DX Z (ip), vehicle: saline 92 % of control | dose: 30.0 mg/kg/injection, schedule: Q01DX Z (ip), vehicle: saline 95 % of control | dose: 60.0 mg/kg/injection, schedule: Q01DX Z (ip), vehicle: saline 94 % of control | dose: 60.0 mg/kg/injection, schedule: Q01DX Z (oral), vehicle: other 98 % of control | dose: 120.0 mg/kg/injection, schedule: Q01DX Z (ip), vehicle: saline 86 % of control | dose: 120.0 mg/kg/injection, schedule: Q01DX Z (oral), vehicle: other 101 % of control | dose: 240.0 mg/kg/injection, schedule: Q01DX Z (oral), vehicle: other 97 % of control | dose: 480.0 mg/kg/injection, schedule: Q01DX Z (oral), vehicle: other 98 % of control

CC(CCc1cccc2ccccc12)(C(=O)O)C(=O)O
inactive: dose: 100.0 mg/kg/injection, schedule: Q01DX009 (ip), vehicle: saline sonified 92 % of control | [18] 104 % of control | dose: 200.0 mg/kg/injection, schedule: Q01DX009 (ip), vehicle: saline sonified 104 % of control | [19] 100 % of control | [20] 94 % of control

C/C(=N\N=C(N)N)c1cccs1
inactive: dose: 7.0 mg/kg/injection, schedule: Q01DX Z (oral), vehicle: carboxymethylcellulose (CMC) 101 % of control | dose: 15.0 mg/kg/injection, schedule: Q01DX Z (oral), vehicle: carboxymethylcellulose (CMC) 91 % of control

CNC(=O)Oc1ccc(C=Nc2cccc([N+](=O)[O-])c2)cc1
inactive: dose: 100.0 mg/kg/injection, schedule: Q01DX009 (ip), vehicle: Klucel (hydroxypropylcellulose) (HPC) 101 % of control | dose: 200.0 mg/kg/injection, schedule: Q01DX009 (ip), vehicle: Klucel (hydroxypropylcellulose) (HPC) 95 % of control | dose: 400.0 mg/kg/injection, schedule: Q01DX009 (ip), vehicle: Klucel (hydroxypropylcellulose) (HPC) 100 % of control

COc1cccc(N=Nc2ccc(N(C)C)cc2)c1
inactive: [15] 95 % of control | [16] 95 % of control | [17] 103 % of control

CSc1ccc(OCC2CO2)cc1C (stereo unspecified)
inactive: dose: 100.0 mg/kg/injection, schedule: Q04DX002 (ip), vehicle: saline 96 % of control | dose: 200.0 mg/kg/injection, schedule: Q04DX002 (ip), vehicle: saline 111 % of control | dose: 400.0 mg/kg/injection, schedule: Q04DX002 (ip), vehicle: saline 104 % of control

CC(C)=C(Br)CN
inactive: [2] 95 % of control | [3] 108 % of control | [4] 94 % of control

CCOC(=O)Nc1nn[nH]n1
inactive: [11] 92 % of control | [12] 97 % of control | [13] 101 % of control | [14] 90 % of control
